Reference: the supplement of paper PMC10307832

Experiments:
Experiment in all cases: relative viability (nuclei count vs DMSO), 5 days (fraction); higher = more cells survive
[1] = compound: CO[C@@H]1[C@H](N(C)C(=O)c2ccccc2)C[C@H]2O[C@]1(C)n1c3ccccc3c3c4c(c5c6ccccc6n2c5c31)C(=O)NC4 [Midostaurin] + CC(=O)c1c(C)c2cnc(Nc3ccc(N4CCNCC4)cn3)nc2n(C2CCCC2)c1=O [Palbociclib] (partner 0.5 µM)
Summary of the method: (§1)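 Nuclei were stained with Hoechst during a one-step fixation (final 0.05% Triton X-100, 1% formaldehyde, 1 ug/ml Hoechst) carried out 5 days after dosing, then counted on 4× images. The cells, lung cancer lines in 1536-well plates, had been dosed by pin tool the day after seeding with one drug alone or a fixed anchor-drug dose plus five library-drug doses (not always all listed) in √10 steps. Relative viability is the nuclei count in treated wells divided by that in vehicle wells, and each value is the median of duplicate plates.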

[2] = compound: CO[C@@H]1[C@H](N(C)C(=O)c2ccccc2)C[C@H]2O[C@]1(C)n1c3ccccc3c3c4c(c5c6ccccc6n2c5c31)C(=O)NC4 [Midostaurin] + CC(C)C[C@H](NC(=O)[C@H](Cc1ccccc1)NC(=O)c1cnccn1)B(O)O [Bortezomib] (partner 0.002 µM)
Summary of the method: as §1

[3] = compound: COc1cc(-c2nn([C@H]3CC[C@H](N4CCN(C(C)=O)CC4)CC3)c3ncnc(N)c23)ccc1NC(=O)c1cc2ccccc2n1C + Cc1nc(Nc2ncc(C(=O)Nc3c(C)cccc3Cl)s2)cc(N2CCN(CCO)CC2)n1 [Dasatinib] (partner 0.075 µM)
Summary of the method: as §1

[4] = compound: COc1cc(-c2nn([C@H]3CC[C@H](N4CCN(C(C)=O)CC4)CC3)c3ncnc(N)c23)ccc1NC(=O)c1cc2ccccc2n1C + O=C(CCCCCCC(=O)Nc1ccccc1)NO [Vorinostat] (partner 1 µM)
Summary of the method: as §1

[5] = compound: CO[C@@H]1[C@H](N(C)C(=O)c2ccccc2)C[C@H]2O[C@]1(C)n1c3ccccc3c3c4c(c5c6ccccc6n2c5c31)C(=O)NC4 [Midostaurin] + C[C@]1(O)C[C@@H](c2nc(-c3ccc4ccc(-c5ccccc5)nc4c3)c3c(N)nccn32)C1 [Linsitinib] (partner 1 µM)
Summary of the method: as §1

| Cell Line | relative viability ([1]; first compound 0.01 µM) | relative viability ([1]; first compound 0.03162 µM) | relative viability ([1]; first compound 0.1 µM) | relative viability ([1]; first compound 0.3162 µM) | relative viability ([2]; first compound 0.01 µM) | relative viability ([2]; first compound 0.03162 µM) | relative viability ([2]; first compound 0.1 µM) | relative viability ([2]; first compound 0.3162 µM) | relative viability ([3]; first compound 0.0128 µM) | relative viability ([3]; first compound 0.128 µM) | relative viability ([3]; first compound 1.28 µM) | relative viability ([4]; first compound 0.0128 µM) | relative viability ([4]; first compound 0.128 µM) | relative viability ([4]; first compound 1.28 µM) | relative viability ([5]; first compound 0.01 µM) | relative viability ([5]; first compound 0.03162 µM) | relative viability ([5]; first compound 0.1 µM) | relative viability ([5]; first compound 0.3162 µM) | relative viability ([3]; first compound 0.04048 µM) | relative viability ([4]; first compound 0.04048 µM) |
| --- | --- | --- | --- | --- | --- | --- | --- | --- | --- | --- | --- | --- | --- | --- | --- | --- | --- | --- | --- | --- |
| NCI-H727 | 0.628 | 0.666 | 0.66 | 0.634 | 0.906 | 0.81 | 0.771 | 0.795 | 0.322 | 0.296 | 0.381 | 1.35 | 1.22 | 1.25 | 0.329 | 0.337 | 0.349 | 0.227 | – | – |
| NCI-H838 | 0.237 | 0.229 | 0.251 | 0.185 | 0.886 | 0.91 | 0.638 | 0.448 | 0.304 | 0.276 | 0.342 | 0.783 | 0.742 | 0.685 | 1.01 | 0.828 | 0.739 | 0.367 | 0.261 | 0.763 |
| NCI-H1355 | 0.409 | 0.429 | 0.443 | 0.468 | 1.13 | 1.16 | 1.31 | 1.26 | 0.834 | 0.719 | 0.884 | 0.801 | 0.641 | 0.625 | 0.755 | 0.83 | 0.865 | 0.838 | 0.798 | 0.639 |
| NCI-H1437 | 0.353 | 0.326 | 0.34 | 0.367 | 0.556 | 0.499 | 0.478 | 0.545 | 0.428 | 0.439 | 0.302 | 0.967 | 0.856 | 0.864 | 1.2 | 0.992 | 1.12 | 1.05 | 0.437 | 1 |
| NCI-H1651 | 0.518 | 0.52 | 0.525 | 0.53 | 0.955 | 1.01 | 1.02 | 1.03 | 0.426 | 0.432 | 0.458 | 0.571 | 0.545 | 0.495 | 1.06 | 0.851 | 1.03 | 0.957 | 0.568 | 0.618 |
| NCI-H1666 | 0.634 | 0.669 | 0.661 | 0.657 | 0.852 | 0.894 | 0.882 | 0.888 | 0.766 | 0.802 | 0.756 | 1.14 | 1.13 | 1.14 | 0.897 | 0.916 | 0.77 | 0.822 | 0.807 | 0.938 |
| NCI-H1734 | 0.334 | 0.38 | 0.373 | 0.351 | 0.868 | 0.886 | 0.915 | 0.786 | 0.429 | 0.531 | 0.516 | 0.873 | 0.783 | 0.852 | 0.832 | 0.803 | 0.728 | 0.928 | 0.599 | 0.787 |
| NCI-H1755 | 0.482 | 0.433 | 0.429 | 0.383 | 0.914 | 0.912 | 0.887 | 0.755 | 0.452 | 0.43 | 0.433 | 1 | 0.721 | 0.951 | 0.97 | 0.923 | 0.865 | 0.692 | 0.386 | 0.945 |
